Source: publication PMC10747034 (Tropical Medicine and Infectious Disease, 2023)
“And” between values parts separate entries of the source, which are not always exact repeats. Equal values may be shown once. “Also recorded” adds a separate entry of the source. Read-outs that look alike come from different tables or passages of the source.

Experiments:
[1] = tested on: Toxoplasma gondii tachyzoites of RH strain; test: Plaque assay (7 days) in NHDF monolayers infected with T. gondii; type: cell-based; conditions: 7 days of treatment, two independent experiments
Experimental: After NHDF reached confluency, each well was replaced with fresh medium containing one compound at a concentration of 1 µM, and then infected with 1000 newly egressed tachyzoites from RH strain [29]. Screening at 1 μM is recommended by MMV. As a control, infected cells were incubated with complete medium and 0.01% DMSO [29]. The plates were then kept in an incubator at 37 °C in a humid atmosphere with 5% CO2 for seven days. After this time, cultures were fixed with 70% ethanol and stained with crystal violet to observe the plates.
For that, 12-well plates containing a monolayer of NHDF were infected with 600 tachyzoites of the RH strain of T. gondii and treated with different concentrations for seven days. IC50s of compounds were calculated using GraphPad Prism 8.0 software.
Data were analyzed using GraphPad Prim 8.0 software. IC50 and CC50 calculations were performed by fitting the values of proliferation/viability in percentage to a non-linear curve followed by dose–response inhibition analysis through log(inhibitor) vs. normalized response.

[2] = Cytotoxicity assay (MTS, 7 days); type: cell-based, Human; conditions: human, NHDF cells, MTS, read-out: Cytotoxicity against NHDF (7 Days) CC50
Experimental: (§1) For that, 96-well tissue plates containing NHDF cells were treated with different concentrations of compounds up to 10 µM for seven days. Control cells were incubated with 0.5% DMSO. At the end of the treatment, cell viability was then analyzed through the colorimetric method of MTS (Promega, Madison, WI, USA). […] Data were analyzed using GraphPad Prim 8.0 software. IC50 and CC50 calculations were performed by fitting the values of proliferation/viability in percentage to a non-linear curve followed by dose–response inhibition analysis through log(inhibitor) vs. normalized response.

[3] = tested on: Toxoplasma gondii tachyzoites of RH strain; test: Forty-eight-hour antiproliferative assay; type: cell-based; conditions: 48 h; for inhibition at 0.25 µM / inhibition at 1 µM: read-out: Inhibition of parasite proliferation
Experimental: NDHF cell monolayers were plated in a 24-well tissue plate containing coverslips, and after confluency was reached, cells were infected with a ratio of 5:1 parasite/host cells with freshly egressed RH strain tachyzoites for two hours. Then, cells were washed twice with phosphate-buffered saline, pH 7.4 (PBS), to remove non-invaded parasites and incubated with a complete medium for two hours more. After this time, infected cells were treated for 48 h with different concentrations of selected compounds, based on the IC50 obtained through plaque assay. At the end of the experiment, the cells were washed with PBS, stained with Bouin for 10 min, washed with 70% alcohol, and stained with solutions 2 and 3 of the Fast Panoptic kit for 60 and 10 s, respectively. Two hundred infected cells were quantified per slide using the 100× objective of a Leica DM500 optical microscope, stratifying the number of infected and non-infected cells and the amount of tachyzoite in each infected cell. The proliferation index is the ratio of the product of the total amount of tachyzoites and the percentage of infected cells by the total number of cells.

T. gondii tachyzoites = test: Ultrastructural analysis through transmission electron microscopy; type: cell-based, Toxoplasma gondii; conditions: 48 h
Experimental: T-25 cm^2 flasks for cell culture with confluent monolayers of NHDF were infected with freshly egressed tachyzoite in a ratio of 10:1 parasite per cell for 2 h of interaction. The flasks were washed and fresh RPMI was added for another two hours. After this, the compounds were added and infected cells were treated for 48 h. The sample fixation and processing for microscopy were performed as previously described.

NHDF cells = test: Cytotoxicity assay (MTS, 7 days); type: cell-based, Human; conditions: for CC50: MTS, read-out: Cytotoxicity against NHDF (7 Days) CC50
Experimental: as §1

[4] = tested on: Toxoplasma gondii tachyzoites of RH strain; test: Post-treatment recovery (washout) assay; type: cell-based; conditions: 3 days of treatment, 7 days recovery without drug; 0.001 to 1 µM tested
Experimental: NHDF monolayers in 12-well plates were infected with 5000 newly egressed tachyzoites from RH strain and then treated for 3 days with drug concentrations of 0.001 to 1 µM. After treatment, the medium with drugs was removed, and the cells were washed twice and incubated with a fresh medium without drugs for an additional 7 days to allow the remaining parasites (if still viable after treatment) to grow. The plates were then kept in an incubator at 37 °C in a humid atmosphere with 5% CO2 throughout the treatment.

[5] = tested on: T. gondii tachyzoites (apicoplast); test: Immunofluorescence assay of apicoplast loss (anti-CPN60); type: cell-based, Toxoplasma gondii; conditions: 1 µM, 24 h
Experimental: Anti-CPN60 (kindly provided by Dr. Boris […], University of Georgia, USA) was used to label the apicoplast luminal protein CPN60 at a dilution of 1:2000. DAPI (5 μg/mL; Sigma-Aldrich) was used to label the DNA. After labeling, the coverslips were mounted onto slides using Prolong gold (Life Technologies, Eugene, OR, USA), and samples were examined on an Invitrogen EVOS fluorescence microscope.

Balamuthia Mandrillaris = tested on: Balamuthia Mandrillaris; parameters: method as in PMID 32560115; conditions: read-out: IC50 against Balamuthia Mandrillaris; cited from earlier work
T. gondii Me49 strain = conditions: read-out: IC50 against T. gondii Me49 strain; cited from earlier work
T. gondii RH strain = conditions: read-out: IC50 against T. gondii RH strain; cited from earlier work
[6] = concentrations up to 10 µM, two independent experiments
[7] = ND = 100% viability up to 10 µM

| Compound | IC50 [1] | CC50 at 7 days [2, 6] | CC50 (NHDF cells; [6]) | SI (Selectivity Index, CC50 NHDF cells/IC50 T. gondii) (NHDF cells) | IC50 ([1]; Toxoplasma gondii, NHDF, 168 h) | other results |
| --- | --- | --- | --- | --- | --- | --- |
| O=C(/C=C\n1cnc(-c2cc(C(F)(F)F)cc(C(F)(F)F)c2)n1)NNc1ccccn1 [Verdinexor] | 70 ± 24.4 nM | 2.86 µM | – | – | – | IC50 ([1]; listed as verdinexor): ≤ 200 nM; inhibition at 0.25 µM ([3]; Toxoplasma gondii, 0.25 µM): > 80%; inhibition at 1 µM ([3]; Toxoplasma gondii, 1 µM): 99%; Ultrastructural alterations on tachyzoites (TEM) (T. gondii tachyzoites; 0.25 µM): caused a drastic effect on the division of the parasite; also recorded: caused extensive vacuolization; also recorded: induced mitochondrial alterations |
| Fc1ccc(-c2nc(-c3c[nH]c4ccc(Br)cc34)[nH]c2-c2ccc(F)cc2)cc1 [MMV1593537] | 940 ± 38.6 nM | – | 5.66 µM | – | – | – |
| COc1cc(NCc2ccc3nc(N)nc(N)c3c2C)cc(OC)c1OC [Trimetrexate] | – | 11.9 µM | – | 3046 | – | inhibition at 0.015 µM ([3]; Toxoplasma gondii, 15 nM, read-out: Inhibition of tachyzoite proliferation): > 90%; Inhibition of T. gondii proliferation ([3]; concentrations close to 2 nM): approximately 50%; Concentrations at which monolayer lysis and plaque areas were seen after washout [4]: 0.001 to 0.1 µM |
| CC1=C(/C=C/C(C)=C/C=C/C(C)=C/C(=O)Nc2ccc(O)cc2)C(C)(C)CCC1 [Fenretinide] | – | 26.7 µM | – | 29 | 918 ± 29.1 nM | – |
| Cn1cc(NC(=O)c2cc(NC(=O)c3ccc(/C=C/c4cnc5ccccc5c4)cc3)cn2C)cc1C(=O)NCCN1CCOCC1 [MMV1634391] | – | – | – | – | – | CC50 (NHDF cells; [7]): > 10 µM; Frequency of vacuoles (4 or 8 parasites) with at least one parasite presenting apicoplast loss [5]: higher than 30% |
| COc1cc(NS(=O)(=O)c2ccc(C)cc2)c2ncccc2c1 [DNDI1417411] | 485 ± 43.8 nM | – | 14.5 µM | – | – | Inhibition of parasite proliferation ([3]; 1 µM): more than 60% |
| COc1ccc2sc3c(c2c1)NC(C)CNC3=O (stereo not shown) [MMV1782115] | ≤ 200 nM and 161 nM | – | 9.43 µM | – | – | Inhibition of parasite proliferation ([3]; 1 µM): more than 60% |
| Oc1c(C(Nc2nc3ccccc3s2)c2ccc(OC(F)F)cc2)ccc2cccnc12 (stereo not shown) [MMV019724] | ≤ 200 nM and 109 nM | – | 2.5 µM | – | – | Inhibition of parasite proliferation ([3]; 0.25 µM): more than 80%; Inhibition of parasite proliferation ([3]; 1 µM): 99%; Ultrastructural alterations on tachyzoites (TEM) (T. gondii tachyzoites; 0.25 µM): affected the parasite cell division process; also recorded: induced a lytic effect in the parasite |
| CCc1nc(N)nc(N)c1-c1ccc(Cl)cc1 [PYR, pyrimethamine] | – | – | – | – | – | Concentration that abolished parasite proliferation recovery (no plaques) [4]: > 1 µM; Concentrations at which monolayer lysis and plaque areas were seen after washout [4]: all concentrations |
| CCC[C@@H]1C[C@@H](C(=O)N[C@@H]([C@H]2O[C@H](SC)[C@H](O)[C@@H](O)[C@H]2O)[C@H](C)Cl)N(C)C1 [Clindamycin] | – | – | – | – | – | Frequency of vacuoles (4 or 8 parasites) with at least one parasite presenting apicoplast loss [5]: higher than 30% |
| CCc1nc(N)nc(N)c1C#CC(C)c1cc(OC)cc(-c2ccncc2)c1 (stereo not shown) [MMV1580844] | – | – | 11.2 µM | – | – | Inhibition of tachyzoite proliferation ([3]; 7 nM): more than 90%; Inhibition of T. gondii proliferation ([3]; concentrations close to 2 nM): approximately 50%; Concentrations at which monolayer lysis and plaque areas were seen after washout [4]: 0.001 to 0.01 µM; Ultrastructural alterations on tachyzoites (TEM) (T. gondii tachyzoites; 3 nM): caused parasite lysis; also recorded: disrupted the parasite division process |
| CCCCC(CC)CNC(=N)NC(=N)NCCCCCCNC(=N)NC(=N)NCC(CC)CCCC (stereo not shown) [Alexidine] | – | 1.63 µM | – | 6 | 272 ± 38.4 nM | inhibition at 0.25 µM ([3]; Toxoplasma gondii, 0.25 µM): ~60% |
| O=S(=O)(Nc1cccc2cccnc12)c1ccccc1 [MMV1578890] | 1100 ± 0.1 nM | – | 10.3 µM | – | – | – |
| Oc1cccc(C(Nc2nccs2)c2ccc3cccnc3c2O)c1 (stereo not shown) [MMV642550] | 320 ± 17 nM | – | 6.73 µM | – | – | Inhibition of T. gondii proliferation ([3]; 0.5 µM): around 75%; Ultrastructural alterations on tachyzoites (TEM) (T. gondii tachyzoites; 1 µM): affected the Golgi complex (GC) (Figure 4E) and induced extensive vacuolization inside the parasite body |
| Cc1cc(C2CCCCC2)n(O)c(=O)c1 [Ciclopirox] | – | 4 µM | – | 8 | 497 ± 18.1 nM | – |
| CC[C@H]1OC(=O)[C@H](C)[C@@H](O[C@H]2C[C@@](C)(OC)[C@@H](O)[C@H](C)O2)[C@H](C)[C@@H](O[C@@H]2O[C@H](C)C[C@H](N(C)C)[C@H]2O)[C@](C)(O)C[C@@H](C)C(=O)[C@H](C)[C@@H](O)[C@]1(C)O [Erythromycin] | 131 ± 15.8 nM | 11.9 µM | – | 91 | ≤ 200 nM | – |
| C=C[C@]1(C)C[C@@H](OC(=O)CS[C@@H]2C[C@H]3CC[C@@H](C2)N3C)[C@]2(C)[C@H](C)CC[C@]3(CCC(=O)[C@H]32)[C@@H](C)[C@@H]1O [Retapamulin] | < 100 nM | 9.98 µM | – | 270 | – | Inhibition of parasite proliferation ([3]; 1 µM): more than 50%; inhibition at 1 µM ([3]; Toxoplasma gondii, 1 µM): > 60%; Frequency of vacuoles (4 or 8 parasites) with at least one parasite presenting apicoplast loss [5]: higher than 30% |
| CN1CCN(Cc2ccc(-c3cnc4[nH]cc(-c5ccc6[nH]ccc6c5)c4c3)cc2)CC1 [URMC-099-C] | – | – | – | – | – | CC50 at 7 days [2, 7]: > 10 µM; inhibition at 1 µM ([3]; Toxoplasma gondii, 1 µM): > 60%; Ultrastructural alterations on tachyzoites (TEM) (T. gondii tachyzoites; 1 µM): induced an extensive vacuolization (asterisks) in T. gondii and myelin-like bodies; IC50 (Balamuthia Mandrillaris): 5.35 µM |
| Nc1nc(Nc2ccc3nc(-c4ccc(F)cc4)cc(N)c3c2)cc(-c2ccccc2)n1 [MMV1593541] | – | – | 2.54 µM | – | – | Inhibition of T. gondii proliferation ([3]; 125 nM): more than 50%; Inhibition of parasite proliferation ([3]; 0.25 µM): around 60%; Ultrastructural alterations on tachyzoites (TEM) (T. gondii tachyzoites; 0.5 µM): induced the formation of extensive cytoplasm vacuolization |
| OCCC#Cc1nc(-c2ccc(F)cc2)c(-c2ccncc2)n1CCCc1ccccc1 [RWJ-67657] | – | 12.6 µM | – | 31 | 412 ± 21.7 nM | Inhibition of parasite proliferation ([3]; 1 µM): 59.5%; inhibition at 1 µM ([3]; Toxoplasma gondii, 1 µM): > 60%; Ultrastructural alterations on tachyzoites (TEM) (T. gondii tachyzoites; 1 µM): induced an extensive vacuolization (asterisks) in T. gondii and myelin-like bodies; IC50 (T. gondii Me49 strain): 0.8 µM; IC50 (T. gondii RH strain): 5 µM |
| Cc1nc2ccc(Oc3ccccc3)cc2c2c1CCN2CCc1ccccc1 [MMV1634399] | 920.3 ± 0.1 nM | – | 24.1 µM | – | – | – |
| NC(=S)N/N=C/c1ncccc1N [Triapine] | – | 2.79 µM | – | 4 | 717.7 ± 0.1 nM | inhibition at 1 µM ([3]; Toxoplasma gondii, 1 µM): > 60% |
| COc1cc(C)c2c(Oc3cccc(C(F)(F)F)c3)c(OC)cc(NC(C)CCCN)c2n1 (stereo not shown) [Tafenoquine] | – | 16.3 µM | – | 18 | 896.9 ± 0.1 nM | – |
